Experimental data reported in EP0355409A2, “Use of prolylendopeptidase inhibitors in the treatment of AIDS” (KABUSHIKI KAISHA YAKULT HONSHA, priority 1988, dated 1990).
Square brackets hold non-standard residues; d marks the D form. Peptide text beside a SMILES is read from it. * marks the point of attachment. Cbz = O=C(OCc1ccccc1)*; Thz = O=C(O)[CH]1CSCN1

Columns and labels:
[1] = test system: LAV-1 infected CEM cells (CEM/LAV-1) and MOLT4 Clone 8; test: Inhibition of syncytia formation in mixed culture of HIV-infected and non-infected T cells; assay type: cell-based; parameters: key: -: Absolutely no inhibition of syncytium formation.; ±: Slight inhibition of syncytium formation.; +: Partial inhibition of syncytium formation.; ++: Substantial inhibition of syncytium formation.; +++: Complete inhibition of syncytium formation; conditions: 1 mM; CEM/LAV-1 + MOLT4 Clone 8, 37°C, 18 hours
Source text: When HIV-infected T cells and non-infected T cells are mixed in a test tube, the infected T cells and non-infected T cells undergo fusion and form giant cells. This "syncytium forming phenomenon" has already been known to be observed upon their mixing. This phenomenon is characteristic to intercellular infection from HIV and is regarded as an evidence for HIV infection of T cells.
(§1) LAV-1 infected CEM cells (CEM/LAV-1, 2 x 10⁴) and MOLT4 Clone 8 (1 x 10⁵) were used as HIV-infected cells and non-infected cells, respectively. Those two types of cells were cultured in 200 µl/well of RPMI1640 medium added with 10% FCS in a 96-well microplate. The PEP inhibitors of this invention and comparative product, which are shown in Table 1, were separately added. The cells were cultured at 37°C for 18 hours in a capneic incubator. Formation of syncytia was observed. The PEP inhibitory action was measured according to the following method.

[2] = target: T1, PEP derived from bovine brain (Bos taurus, UniProt Q9XTA2); test: Measurement of PEP inhibitory action (substrate Z-Gly-Pro-β-naphtyl amide); assay type: biochemical; conditions: pH 7.0, 37°C, read-out: PEP Inhibition IC50
T1 construct: PEP derived from bovine brain; from tissue; host or cells: bovine brain
T1 sequence (Q9XTA2 1-710): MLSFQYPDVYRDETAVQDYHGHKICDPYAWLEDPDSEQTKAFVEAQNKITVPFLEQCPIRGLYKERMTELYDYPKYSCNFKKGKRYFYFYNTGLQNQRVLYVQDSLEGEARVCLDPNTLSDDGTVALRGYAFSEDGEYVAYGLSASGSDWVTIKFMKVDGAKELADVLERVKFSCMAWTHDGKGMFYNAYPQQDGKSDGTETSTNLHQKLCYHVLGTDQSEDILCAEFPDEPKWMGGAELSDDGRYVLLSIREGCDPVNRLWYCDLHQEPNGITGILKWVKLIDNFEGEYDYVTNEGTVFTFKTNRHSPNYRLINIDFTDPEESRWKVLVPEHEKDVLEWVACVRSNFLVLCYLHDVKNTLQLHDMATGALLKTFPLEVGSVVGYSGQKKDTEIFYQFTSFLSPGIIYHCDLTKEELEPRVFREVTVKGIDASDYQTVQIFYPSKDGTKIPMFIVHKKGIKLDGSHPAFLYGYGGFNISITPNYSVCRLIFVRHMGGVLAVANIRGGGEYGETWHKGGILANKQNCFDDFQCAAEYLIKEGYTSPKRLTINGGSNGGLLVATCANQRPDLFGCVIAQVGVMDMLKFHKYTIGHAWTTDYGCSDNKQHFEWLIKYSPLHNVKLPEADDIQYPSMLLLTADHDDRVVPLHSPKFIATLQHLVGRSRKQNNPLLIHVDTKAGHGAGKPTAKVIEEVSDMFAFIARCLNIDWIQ
Protocol: as §1, with “Those” for “LAV-1 infected CEM cells (CEM/LAV-1, 2 x 10⁴) and MOLT4 Clone 8 (1 x 10⁵) were used as HIV-infected cells and non-infected cells, respectively. Those”
Z-Gly-Pro-β-naphtyl amide was used as a substrate and the inhibitory action against PEP derived from bovine brain was measured.
0.7 ml of 20 mM-tris HCl buffer (pH 7.0) containing 10 mM of EDTA and 10 mM of 2-mercaptoethanol was added with 100 µl of PEP (about 0.14 u/ml) and 100 µl of a test solution which had been prepared to have a predetermined concentration (0, 10⁻⁹ - 10⁻⁴M), and subjected to preincubation at 37°C for 5 minutes. To this was added various concentrations of a substrate which had been dissolved in 100 µl of 40% dioxane followed by incubation at 37°C for 15 minutes to proceed an exzymatic reaction. The reaction was terminated by the use of 25% trichloroacetic acid. The solution was centrifugally separated at 3,000 rpm for 10 minutes to obtain 0.5 ml of a supernatent, to which was added 0.5 ml of 0.1% nitrous acid, and 3 minutes after, 0.05% N-(1-naphtyl)ethylendediaminedihydrochloride ethanol solution. After allowing the mixture to stand at 37°C for 25 minutes, the absorbance at 570 nm was measured. […] Enzyme activity unit (µmol/min/ml) = ΔOD x 0.42 x dilution ratio

Row | SMILES | Inhibition of Syncytia Formation [1] | IC50 [2]
1 | O=C(C1CCCN1C(=O)OCc1ccccc1)N1CCCCC1 (stereo not drawn) | ± | > 1000 µM
2 | O=C(C1CSCN1C(=O)OCc1ccccc1)N1CCOCC1 (stereo not drawn) | – | 0.54 µM
3 | O=C(C1CSCN1C(=O)OCc1ccccc1)N1CCCC1 (stereo not drawn) | – | 0.16 µM
4 | O=C(C1CCCN1C(=O)OCc1ccccc1)N1CCSC1 (stereo not drawn) | ++ | 0.0046 µM
5 | O=C(C1CSCN1C(=O)OCc1ccccc1)N1CCSC1 (stereo not drawn) | +++ | 0.00014 µM
6 | O=CC1CSCN1C(=O)C1CCCN1C(=O)OCc1ccccc1 (stereo not drawn) (Cbz-Pro-[Thz]-aldehyde; configuration not given here) | ++ | 0.001 µM
7 | O=CC1CSCN1C(=O)C1CSCN1C(=O)OCc1ccccc1 (stereo not drawn) (Cbz-[Thz]-[Thz]-aldehyde; configuration not given here) | +++ | –
8 | O=C(C1CSCN1)N1CCSC1 (stereo not drawn) [comparative product, reference compound] | – | > 1000 µM
